# Structures can show the parent of a compound that is named as a salt.
# How the values were obtained:
# [1] = tested on: sebum secretion; test: Inhibitory effect of MMPs inhibitors on sebum secretion in UVB-irradiated hairless mice (sebumeter); assay type: in vivo
# Description: UV is generally known to activate the sebaceous gland cells on the skin and thereby to enhance the amount of sebum secretion, which has been reported on a model using hairless mice ([…] et al., Arch Dermatol., Vol. 284, 106 (1992)). In an experiment, Bissett et al. (Phytochem. Phytobiol, Vol. 46, 3, 367 (1987)) applied the method of preparing a light-aged skin, and induced the activation of sebaceous gland cells and enhancement in the amount of sebum by irradiating the dorsal area of the […] repeatedly three times per week for 5-8 weeks by controlling the amount of UVB irradiation to under the […] formation level. […] As the control, a group in which the solvent for the test substance was applied in a similar protocol was set up, and the effect of inhibiting sebum was evaluated by comparing the amount of sebum between the two. The measurement of sebum amount was performed using a sebumeter (COURAGE KHAZAKA company). From the measured values, the ratio (%) of sebum inhibition was calculated based on the following criteria: [formula]
# [2] = tested on: gelatinase belonging to the MMPs; details: skin irradiated with UVB for 10 weeks, EDTA (100 mM) added in vitro; FIG. 3C
# Description: By staining gelatin with the Ponceau solution, the gelatin digested area (the area in which the gelatinase activity is present) was rendered white for detection.
# [3] = tested on: sebaceous gland; test: Effect of transdermal application of an MMPs inhibitor on sebaceous gland development under UVB stimulation; assay type: in vivo, hairless mice; details: FIG. 4A vs solvent only FIG. 4B
# Description: It is known that when UVB (50 mJ/cm^2-200 mJ/cm^2; 50 mJ/cm^2 at the start of irradiation, the amount of irradiation is increased stepwise depending on the number of irradiations) below the erythema formation level is repeatedly irradiated to hairless mice, the sebaceous gland becomes developed and the amount of sebum increases (R. H. Lesnik et al., Arch Dermatol., Vol. 284, 106 (1992)). FIG. 2A and FIG. 2B represent the H&E stains of the UVB-non-irradiated tissue and the UVB-irradiated tissue. It is observed that UVB irradiation results in the thickening of the epidermis as well as the development of the sebaceous gland.
# (§1) The effect of the transdermal application of an MMPs inhibitor on the sebaceous gland development and the gelatinase activity present in the sebaceous gland is shown for active substance A as an example (FIG. 4A and FIG. 4B).
# [4] = tested on: gelatinase; test: Gelatinase activity in the sebaceous gland after transdermal application, in situ zymography; assay type: in vivo, hairless mice; details: FIG. 4A vs solvent only FIG. 4B
# Description: as §1
# [5] = 100 μl of 1% test substance applied three times per week immediately after each UV irradiation, vs solvent group, hairless mice dorsal area, 5-8 weeks UVB
smiles,measurement,setting,value
"COc1cc(/C=C/C(=O)CC(=O)/C=C/c2ccc(O)c(OC)c2)ccc1O [Curcumine, curcumine]",Ratio of sebum inhibition (%),[1]; [5],77%
O=C(O)CN(CCN(CC(=O)O)CC(=O)O)CC(=O)O [EDTA],Gelatin degradation at the epidermal area and the sebaceous gland area,[2],inhibited the gelatin degradation
"C[C@]12CC[C@@H]3c4ccc(O)cc4CC[C@H]3[C@@H]1CC[C@@H]2O [Estradiol, estradiol, reference compound]",Ratio of sebum inhibition (%),"[1]; positive control, 0.6 mg/kg oral administration, UVB-irradiated hairless mice",65%
COc1ccc(S(=O)(=O)N(Cc2cccnc2)[C@@H](C(=O)NO)C(C)C)cc1 [Hydrochloride of active ingredient A],Ratio of sebum inhibition (%),[1]; [5],79%
COc1ccc(S(=O)(=O)N(Cc2cccnc2)[C@@H](C(=O)NO)C(C)C)cc1 [active substance A],Development of the sebaceous gland area,[3],suppresses the development of the sebaceous gland area
same,Gelatinase activity present in the sebaceous gland,[4],inhibited

# Source: US20040009241A1, “External skin preparations for suppressing sebum secretion” (priority 2002, published 2004)
